Holding throughout (type): in vivo
For data set [1], the system named is arachidonic acid induced ear swelling. As to the kind of experiment: Topical arachidonic acid induced ear swelling model in mice. Conditions: 30 min before and 15 min after arachidonic acid, measured at 90 minutes. The protocol:
Purified 3-methanesulfonylpropionitrile was dissolved in vehicle (ethanol/acetone 1:1) to 5% (w/v). The active compound, indomethacin (positive control in vehicle), and vehicle were topically applied to mice and evaluated for anti-inflammatory activity in the topical arachidonic acid induced ear swelling model in mice, which is a model of irritant contact dermatitis.
Male ICR mice weighing 22±2 g were used and randomly divided; each group had 10 mice. Arachidonic Acid (0.5 mg in 20 μl of acetone:ethanol/1:1) was applied topically to the anterior and posterior surfaces of the right ear of each mice. Test substance and vehicle, as listed in Table 3 were similarly applied 30 min before and 15 min after arachidonic acid application. The thickness of the right ear and the left ear was measured and the difference calculated as an indication of the inflammation in the right ear. Ear swelling was measured by a Dyer model micrometer gauge at 60 and 90 minutes after arachidonic acid application as an index of inflammation. Percent inhibition was calculated according to the formula: Ic−It/Ic×100, where Ic and It refers to increase of ear thickness (mm) in control and treated mice, respectively. ANOVA and Dunnett's test were employed to ascertain significant difference between vehicle control and treated groups. Significance is set at P<0.05 level.

For data set [2], the system named is rats. Briefly: Oral systemic toxicity in rats.
A short description of data set [3]: Systemic (plasma) exposure after oral and subcutaneous administration to rats. The procedure:
This study was done to determine the systemic (plasma) exposure of MSPN after administration by the oral and subcutaneous routes to rats.
MSPN substance was prepared in water for oral administration and in saline for subcutaneous administration. Rats weighed 282 to 295 g were used in the study. Male rats (n=2) were given a single dose at 50, 160 or 500 mg/kg by both oral and subcutaneous routes. Female rats (n=2) were dosed only at 500 mg/kg by both oral and subcutaneous routes. The blood was drawn from each rat at 0.25, 1, 2, 3, 4, 6, 12, 24, and 48 hours and measured for MSPN concentration by LC/MS/MS.

The test system of data set [4] is dogs. As to the kind of experiment: Oral systemic toxicity in dogs.
Setting [5] is: decreased body temperature, decreased respiratory rate, increased blood pressure, increased heart rate.

Where two headings read alike, the source gives them in different places.

`COc1ccc2c(c1)c(CC(=O)O)c(C)n2C(=O)c1ccc(Cl)cc1` [Indomethacin, indomethacin, reference compound]: the “% Inhibition of ear swelling” value in data set [1] ((0.5% w/v), 0.1 mg/20 μL) is given as 53%.

Turning to `CS(=O)(=O)CCC#N` [MSPN, 3-methanesulfonylpropionitrile], the “doses at which effects were seen, relative to expected human therapeutic doses” value in data set [2] and in data set [4] was “over 2000 fold” each time. In addition, the “effects seen after oral, systemic toxicity administration” value in data set [2] (setting [5]) and in data set [4] (setting [5]) was “mild physiological effects” throughout. Moreover, the “% Inhibition of ear swelling” value in data set [1] (375 mM (5% w/v), 1 mg/20 μL) turned out to be 36%. Also, the Cmax in data set [3] (rat, plasma, 500 mg/kg, heading: average maximum plasma concentration, male rats, oral, single dose 500 mg/kg, read-out: average maximum plasma concentration (Cmax)) stood at 12 µg/mL; in data set [3] (rat, plasma, sc, 500 mg/kg, heading: average Cmax, female rats, subcutaneous, single dose 500 mg/kg, read-out: average Cmax) it was 9.5 µg/mL; in data set [3] (rat, plasma, sc, male rats, subcutaneous, single dose 50 mg/kg, read-out: average maximum plasma concentration (Cmax)), 160 µg/mL; in data set [3] (rat, plasma, sc, male rats, subcutaneous, single dose 160 mg/kg, read-out: average maximum plasma concentration (Cmax)), 760 µg/mL; in data set [3] (rat, plasma, sc, male rats, subcutaneous, single dose 500 mg/kg, read-out: average maximum plasma concentration (Cmax)), 3300 µg/mL; in data set [3] (rat, plasma, female rats, oral, single dose 500 mg/kg, read-out: average Cmax), 3800 µg/mL. Moreover, the Cmax in data set [3] (rat, plasma, male rats, oral, single dose 50 mg/kg, read-out: average maximum plasma concentration (Cmax)) amounted to 160 µg/mL; in data set [3] (rat, plasma, male rats, oral, single dose 160 mg/kg, read-out: average maximum plasma concentration (Cmax)) it was 560 µg/mL. In addition, the half-life in data set [3] (rat, plasma, rats, both routes (oral, subcutaneous) and both sexes, read-out: Half-lives) fell in the range of 8 to 15 h. Moreover, the bioavailability entry in data set [3] (rats, after both the oral and subcutaneous routes) is given as “significant bioavailability”.
